# Measured values taken from patent US20240132484A1, “BROAD SPECTRUM ANTIVIRAL COMPOUNDS TARGETING THE SKI COMPLEX” (priority 2020, published 2024).
# “And” between values parts separate entries of the source, which are not always exact repeats. Identical values can stand only once. Like-named read-outs stand apart in the source and are kept apart here.
# What was measured:
# SARS2 = type: cell-based, SARS-CoV-2; settings: for Percentage Infection Relative to Appropriate DMSO Control: avg background subtraction; for Percentage Inhibition Average 1 μM / Screening data (Relative infection to DMSO controls) Average 1 μM: SARS2, 1 μM; for Screening data (Relative infection to DMSO controls) Average 1 μM / Screening data (Relative infection to DMSO controls) Average 5 μM / Screening data (Relative infection to DMSO controls) Average 10 μM / Screening data (Relative infection to DMSO controls) Average 25 μM / Screening data (Relative infection to DMSO controls) Average 50 μM / Average (relative infection to DMSO over the 5 tested concentrations): 100=DMSO control; for Percentage Inhibition Average 5 μM / Screening data (Relative infection to DMSO controls) Average 5 μM: SARS2, 5 μM; for Percentage Inhibition Average 10 μM / Screening data (Relative infection to DMSO controls) Average 10 μM: SARS2, 10 μM; for Percentage Inhibition Average 25 μM / Screening data (Relative infection to DMSO controls) Average 25 μM: SARS2, 25 μM; for Percentage Inhibition Average 50 μM / Screening data (Relative infection to DMSO controls) Average 50 μM: SARS2, 50 μM; for Average (relative infection to DMSO over the 5 tested concentrations): SARS2, average over 1 to 50 uM
# cells (nuclei count) = settings: for Relative cell count to DMSO controls, Average 1 μM / Relative cell count to DMSO controls, Average 5 μM / Relative cell count to DMSO controls, Average 10 μM / Relative cell count to DMSO controls, Average 25 μM / Relative cell count to DMSO controls, Average 50 μM: toxicity data, 100=DMSO control; for Relative cell count to DMSO controls, Average (for correlation analysis): average value over the 5 tested concentrations (1 to 50 uM)
smiles,measurement,setting,value
CCOc1cccc(CNCCc2ccccc2F)c1OCC(O)CN1CCN(C)CC1 (centres unmarked) [SILCS3],Percentage Infection Relative to Appropriate DMSO Control,"SARS2; 1 uM, Exp 1 (SMW454), single wells",102.18% and 96.08% and 79.31%
same,Percentage Infection Relative to Appropriate DMSO Control,"SARS2; 5 uM, Exp 1 (SMW454), single wells",110.38% and 99.87% and 94.40%
same,Percentage Infection Relative to Appropriate DMSO Control,"SARS2; 10 uM, Exp 1 (SMW454), single wells",98.93% and 87.99% and 82.55%
same,Percentage Infection Relative to Appropriate DMSO Control,"SARS2; 25 uM, Exp 1 (SMW454), single wells",73.36% and 69.10% and 58.07%
same,Percentage Infection Relative to Appropriate DMSO Control,"SARS2; 50 uM, Exp 1 (SMW454), single wells",38.76% and 39.55% and 35.10%
same,"Infection Data, Average, Mean","SARS2; Average of Exp 1-3, n 9, 1 uM",77.07%
same,"Infection Data, Average, Mean","SARS2; Average of Exp 1-3, n 9, 5 uM",48.45%
same,"Infection Data, Average, Mean","SARS2; Average of Exp 1-3, n 9, 10 uM",46.02%
same,"Infection Data, Average, Mean","SARS2; Average of Exp 1-3, n 9, 25 uM",22.24%
same,"Infection Data, Average, Mean","SARS2; Average of Exp 1-3, n 9, 50 uM",12.53%
same,Percentage Infection Relative to Appropriate DMSO Control,"SARS2; Exp 2 (SMW466), 1 uM",97.83% and 85.97% and 85.21%
same,Percentage Infection Relative to Appropriate DMSO Control,"SARS2; Exp 2 (SMW466), 5 uM",25.85% and 18.37% and 25.06%
same,Percentage Infection Relative to Appropriate DMSO Control,"SARS2; Exp 2 (SMW466), 10 uM",15.71% and 12.38% and 8.39%
same,Percentage Infection Relative to Appropriate DMSO Control,"SARS2; Exp 2 (SMW466), 25 uM",−2.25% and −2.53% and 0.99%
same,Percentage Infection Relative to Appropriate DMSO Control,"SARS2; Exp 2 (SMW466), 50 uM",−2.52% and −3.00% and 0.03%
same,Percentage Infection Relative to Appropriate DMSO Control,"SARS2; Exp 3 (SMW480), 1 uM",55.68% and 51.29% and 40.12%
same,Percentage Infection Relative to Appropriate DMSO Control,"SARS2; Exp 3 (SMW480), 25 uM",6.43% and −0.12% and −2.91%
same,Percentage Inhibition Average 1 μM,SARS2,22.93%
same,Screening data (Relative infection to DMSO controls) Average 1 μM,SARS2,77.07
same,Percentage Inhibition Average 5 μM,SARS2,51.55%
same,Screening data (Relative infection to DMSO controls) Average 5 μM,SARS2,48.45
same,Percentage Inhibition Average 10 μM,SARS2,53.98%
same,Screening data (Relative infection to DMSO controls) Average 10 μM,SARS2,46.02
same,Percentage Inhibition Average 25 μM,SARS2,77.76%
same,Screening data (Relative infection to DMSO controls) Average 25 μM,SARS2,22.24
same,Percentage Inhibition Average 50 μM,SARS2,87.47%
same,Screening data (Relative infection to DMSO controls) Average 50 μM,SARS2,12.53
same,Average (relative infection to DMSO over the 5 tested concentrations),SARS2,41.26
same,"Relative cell count to DMSO controls, Average 1 μM",cells (nuclei count),114.7
same,"Relative cell count to DMSO controls, Average 5 μM",cells (nuclei count),125.56
same,"Relative cell count to DMSO controls, Average 10 μM",cells (nuclei count),124.47
same,"Relative cell count to DMSO controls, Average 25 μM",cells (nuclei count),117.43
same,"Relative cell count to DMSO controls, Average 50 μM",cells (nuclei count),86.97
same,"Toxicity Data, Average, Mean","cells (nuclei count); Average of Exp 1-3, n 9, 1 uM",114.70%
same,"Toxicity Data, Average, Mean","cells (nuclei count); Average of Exp 1-3, n 9, 5 uM",125.56%
same,"Toxicity Data, Average, Mean","cells (nuclei count); Average of Exp 1-3, n 9, 10 uM",124.47%
same,"Toxicity Data, Average, Mean","cells (nuclei count); Average of Exp 1-3, n 9, 25 uM",117.43%
same,"Toxicity Data, Average, Mean","cells (nuclei count); Average of Exp 1-3, n 9, 50 uM",86.97%
same,"Toxicity Data, nuclei count relative to DMSO controls","cells (nuclei count); Exp 1 (SMW454), 1 uM",108.7% and 108.1% and 97.2%
same,"Toxicity Data, nuclei count relative to DMSO controls","cells (nuclei count); Exp 1 (SMW454), 5 uM",105.8% and 104.1% and 93.5%
same,"Toxicity Data, nuclei count relative to DMSO controls","cells (nuclei count); Exp 1 (SMW454), 10 uM",112.5% and 109.3% and 98.7%
same,"Toxicity Data, nuclei count relative to DMSO controls","cells (nuclei count); Exp 1 (SMW454), 25 uM",102.5% and 101.9% and 95.9%
same,"Toxicity Data, nuclei count relative to DMSO controls","cells (nuclei count); Exp 1 (SMW454), 50 uM",93.7% and 93.9% and 95.7%
same,"Toxicity Data, nuclei count relative to DMSO controls","cells (nuclei count); Exp 2 (SMW466), 1 uM",110.2% and 122.4% and 99.6%
same,"Toxicity Data, nuclei count relative to DMSO controls","cells (nuclei count); Exp 2 (SMW466), 5 uM",143.6% and 141.9% and 102.7%
same,"Toxicity Data, nuclei count relative to DMSO controls","cells (nuclei count); Exp 2 (SMW466), 10 uM",139.8% and 146.3% and 105.1%
same,"Toxicity Data, nuclei count relative to DMSO controls","cells (nuclei count); Exp 2 (SMW466), 25 uM",131.0% and 122.3% and 75.1%
same,"Toxicity Data, nuclei count relative to DMSO controls","cells (nuclei count); Exp 2 (SMW466), 50 uM",81.8% and 76.6% and 53.5%
same,"Toxicity Data, nuclei count relative to DMSO controls","cells (nuclei count); Exp 3 (SMW480), 1 uM",131.1% and 136.5% and 118.6%
same,"Toxicity Data, nuclei count relative to DMSO controls","cells (nuclei count); Exp 3 (SMW480), 5 uM",154.5% and 147.8% and 136.1%
same,"Toxicity Data, nuclei count relative to DMSO controls","cells (nuclei count); Exp 3 (SMW480), 10 uM",156.3% and 129.5% and 122.8%
same,"Toxicity Data, nuclei count relative to DMSO controls","cells (nuclei count); Exp 3 (SMW480), 25 uM",157.9% and 155.8% and 114.5%
same,"Toxicity Data, nuclei count relative to DMSO controls","cells (nuclei count); Exp 3 (SMW480), 50 uM",117.7% and 89.8% and 80.0%
same,"Relative cell count to DMSO controls, Average (for correlation analysis)",cells (nuclei count),113.83
CN(C)CCN(Cc1ccccc1)Cc1cc(C#CCO)cs1 [SILCS5],"Percentage Infection Relative to DMSO Control, Average, Mean",SARS2,75.63% and 81.28% and 98.58% and 104.84% and 111.97%
same,Percentage Inhibition Average 1 μM,SARS2,−11.97%
same,Screening data (Relative infection to DMSO controls) Average 1 μM,SARS2,111.97
same,Percentage Inhibition Average 5 μM,SARS2,−4.84%
same,Screening data (Relative infection to DMSO controls) Average 5 μM,SARS2,104.84
same,Percentage Inhibition Average 10 μM,SARS2,1.42%
same,Screening data (Relative infection to DMSO controls) Average 10 μM,SARS2,98.58
same,Percentage Inhibition Average 25 μM,SARS2,18.72%
same,Screening data (Relative infection to DMSO controls) Average 25 μM,SARS2,81.28
same,Percentage Inhibition Average 50 μM,SARS2,24.37%
same,Screening data (Relative infection to DMSO controls) Average 50 μM,SARS2,75.63
same,Average (relative infection to DMSO over the 5 tested concentrations),SARS2,94.46
same,"Relative cell count to DMSO controls, Average 1 μM",cells (nuclei count),113.75
same,"Relative cell count to DMSO controls, Average 5 μM",cells (nuclei count),108.79
same,"Relative cell count to DMSO controls, Average 10 μM",cells (nuclei count),102.76
same,"Relative cell count to DMSO controls, Average 25 μM",cells (nuclei count),105.3
same,"Relative cell count to DMSO controls, Average 50 μM",cells (nuclei count),75.59
same,"Toxicity Data, Average, Mean (relative to DMSO control)","cells (nuclei count); Average of Exp 1-3, 1 uM",113.75%
same,"Toxicity Data, Average, Mean (relative to DMSO control)","cells (nuclei count); Average of Exp 1-3, 5 uM",108.79%
same,"Toxicity Data, Average, Mean (relative to DMSO control)","cells (nuclei count); Average of Exp 1-3, 10 uM",102.76%
same,"Toxicity Data, Average, Mean (relative to DMSO control)","cells (nuclei count); Average of Exp 1-3, 25 uM",105.30%
same,"Toxicity Data, Average, Mean (relative to DMSO control)","cells (nuclei count); Average of Exp 1-3, 50 uM",75.59%
same,"Relative cell count to DMSO controls, Average (for correlation analysis)",cells (nuclei count),101.24
